Source: patent US5491166A, “Inhibitors of HIV protease useful for the treatment of AIDS” (Eli Lilly and Company, priority 1992, dated 1996)

Target: T1, HIV-1 protease (Human immunodeficiency virus type 1 group M subtype B, UniProt P04585)
T1 construct: Purified HIV-1 protease was obtained as described above; made in house; host or cells: E. coli K12 L507/pHP10D
Assay: biochemical
Conditions: All values normalized to a positive control; 1 h pre-incubation, 16 h with substrate at room temperature; *concentration of the compound was not increased above the reported concentration
Procedure: A culture of E. coli K12 L507/pHP10D was grown to mid-log phase at 32° C. in LB media containing 12.5 μg/ml tetracycline. The cultivation temperature was quickly elevated to 40° C. to induce gene expression, and the cells were allowed to grow for 2.5 hours at this temperature before the culture was quickly chilled on ice. The cells were centrifuged and the cell pellet was resuspended in 20 mL 50 mmol MES buffer (pH 6.0) containing 1 mmol EDTA, 1 mmol DTT, 1 mmol PMSF and 10% glycerol ("Buffer A"). Cells were lysed by sonication using a Fischer Model 300 Dismembrator and a microtip probe. Following centrifugation at 27,000×g, the supernatant was diluted to a total volume of 60 mL with Buffer A and loaded onto a 2.0×19 cm QAE-Sepharose column (1 mL/min, 4° C.), that had been equilibrated in Buffer A. The column was washed isocratically for 180 min and then eluted with a gradient eluent of 0-1.0M sodium chloride in Buffer A over 120 min. Enzymatic activity was measured by HPLC using the synthetic peptide SQNYPIV as described in Margolin et al., Biochem, Biophys. Res. Commun., 167, 554-560 (1990); the production of the p1 peptide (SQNY) was measured.
The active fractions were combined, made 1.2M in ammonium sulfate, and applied to a 2.0×18 cm hexyl agarose column that had been equilibrated in Buffer A containing 1.2M ammonium sulfate. The sample was loaded at a flow rate of 1 mL/min at 4° C., washed with the equilibration buffer for 240 min (1 mL/min) and then eluted using a reverse linear gradient of 1.2-0M ammonium sulfate in Buffer A for 120 min at the same flow rate. The column was then washed isocratically in Buffer A for 120 min.
The active fractions were combined, concentrated to 10 mL using an Amicon stirred cell with a YM-10 membrane and then applied to a MonoS cation exchange column (1.0×10 cm) that had been equilibrated in Buffer A. The sample was loaded at a flow rate of 1 mL/min at 25° C. After washing isocratically for 30 min, the protease was eluted using a linear gradient of 0-0.45M sodium chloride in Buffer A over 40 min.. The column was washed isocratically in Buffer A containing 0.45M sodium chloride for 30 min.
The active fractions were combined and concentrated to 200 μL using an Amicon stirred cell and a YM-10 membrane and then the protease was applied to a Superose 6 size exclusion column equilibrated in Buffer A containing 0.1M sodium chloride.
The purified peptide was labeled with a fluorescent marker at the C-terminal end for use in the Pandex assay. N^α -Biotin-[…]OH (1.206 g, 0.936 mmol) was dissolved in 100 mL of 0.1M sodium borate, pH 9.5. Then, a solution of 3 g (7.7 mmol) of fluorescein isothiocyanate in 15 mL dimethyl sulfoxide was added to the reaction mixture in 10 equal portions over two hours. The resulting mixture was allowed to react for one hour after the final addition. The solution was adjusted to pH 3 using 5N HCl, resulting in the formation of a precipitate which was removed by centrifugation.
The following buffers and solutions are used in the Fluorescence HIV-1 Protease Inhibitor Assay:
0.05M 4-morpholineethane sulfonic acid, pH 5.5
0.1% solution of Fluoricon Avidin Assay Particles (Avidin conjugated to solid polystyrene beads, 0.6-0.8 microns in diameter in TBSA Buffer
27 IU/mL of purified HIV-1 protease in MES-ALB buffer (1 IU equals the amount of enzyme required to hydrolyze 1 μmole of substrate per minute at 37° C.
To each well of a round bottom, 96-well plate is added 20 μL of the Enzyme Solution followed by 10 μL of the compound to be evaluated in a 20% aqueous dimethylsulfoxide solution. Purified HIV-1 protease was obtained as described above.

Row | Compound | Fluorescence Assay IC50 [µg/mL]
1 | CC(C)(C)NC(=O)c1ccccc1C[C@@H](O)[C@H](Cc1ccccc1)NC(=O)[C@@H](CC(=O)OCc1ccccc1)NC(=O)OCc1ccccc1 (relative stereo) [Example 9, [2R-(2R *, 3S*, 6R*)]-N-t-Butyl-2-[2-hydroxy-3-phenylmethyl-4-aza-5-oxo-6-N(benzyloxycarbonyl)amino-7-benzyloxycarbonyl]heptyl benzamide] | > 1
2 | [2R-(2R*, 3S*, 6S*)]-N-t-Butyl-2-[2-hydroxy-3-phenylmethyl-4,7-diaza-5,8-dioxo-6-cyanomethyl-9-N(methyl)aza-10-quinolin-2-yl]decyl benzamide [Example 4] | 0.0012

Same assay, conditions: read-out: Fluorescence Assay IC8

Row | Compound | IC8 [µg/mL]
3 | CC(C)(C)NC(=O)c1ccccc1C[C@@H](O)[C@H](Cc1ccccc1)NC(=O)[C@@H](CC(=O)OCc1ccccc1)NC(=O)OC(C)(C)C [Example 11, [2R-(2R *, 3S*, 6S*)]-N-t-butyl-2-[2-hydroxy-3-phenylmethyl-4-aza-5-oxo-6-N(t-butoxycarbonyl)amino-7-benzyloxycarbonyl]heptyl benzamide] | 1

Same assay, conditions: read-out: Fluorescence Assay IC50 (converted)

Row | Compound | IC50 [nM]
4 | CC(C)(C)NC(=O)c1ccccc1C[C@@H](O)[C@H](Cc1ccccc1)NC(=O)[C@H](CC#N)NC(=O)NCc1cccc2ccccc12 (relative stereo) [Example 1, [2R-(2R*, 3S*, 6S*)]-N-t-Butyl-2-[2-hydroxy-3-phenylmethyl-4,7,9-triaza-5,8-dioxo-6-cyanomethyl-10-naphth-1-yl]decyl benzamide] | 0.645
5 | CN1Cc2ccccc2CC1C(=O)N[C@@H](CC#N)C(=O)N[C@@H](Cc1ccccc1)[C@H](O)Cc1ccccc1C(=O)NC(C)(C)C (relative stereo) [Example 3, R-(2R *, 3S*, 6S*)-N-t-Butyl-2-[2-hydroxy-3-phenylmethyl-4,7-diaza-5,8-dioxo-6-cyanomethyl-8-(2-methyl-1,2,3,4-tetrahydroisoquinolin-3-yl]octylbenzamide] | 89.5
6 | CN(C)CCNC(=O)C[C@H](NC(=O)c1ccc2ccccc2n1)C(=O)N[C@@H](Cc1ccccc1)[C@H](O)Cc1ccccc1C(=O)NC(C)(C)C (relative stereo) [Example 15, [2R -(2R*,3S*,6S*)]-N-t-Butyl-2-[2-hydroxy-3-phenylmethyl-4-aza-5,8-dioxo-6-N(quinolin-2-ylcarbonyl)amino-8-N(2-(N, N-dimethylamino)ethyl)amino]octyl benzamide] | 2.79
7 | CC(C)(C)NC(=O)c1ccccc1C[C@@H](O)[C@H](Cc1ccccc1)NC(=O)[C@H](CC#N)NC(=O)c1ccc2ccccc2n1 [Example 2, [2R-(2R *, 3S*, 6S*)]-N-t-Butyl-2-[2-hydroxy-3-phenylmethyl-4,7-diaza-5,8-dioxo-6-cyanomethyl-8-quinolin-2-yl]octyl benzamide] | 1.86
8 | CC(C)(C)NC(=O)c1ccccc1C[C@@H](O)[C@H](Cc1ccccc1)NC(=O)[C@H](CC(=O)OCc1ccccc1)NC(=O)OCc1ccccc1 [Example 6, [2R-(2R*, 3S*, 6S*)]-N-t-Butyl-2-[2-hydroxy-3-phenylmethyl-4-aza-5-oxo-6-N(benzyloxycarbonyl)amino-7-benzyloxycarbonyl]heptyl benzamide] | 10.6
9 | CC(C)(C)NC(=O)c1ccccc1C[C@@H](O)[C@H](Cc1ccccc1)NC(=O)[C@H](CC(=O)OCc1ccccc1)NC(=O)c1ccc2ccccc2n1 [Example 7, [2R-(2R*,3S*,6S*)]-N-t-Butyl-2-[2-hydroxy-3-phenylmethyl-4-aza-5-oxo-6-N(quinolin-2-ylcarbonyl)amino-7-benzyloxycarbony]heptyl benzamide] | 0.856
10 | CC(C)(C)NC(=O)c1ccccc1C[C@@H](O)[C@H](Cc1ccccc1)NC(=O)[C@@H](CC(=O)OCc1ccccc1)NC(=O)c1ccc2ccccc2n1 [Example 8, [2R-(2R*,3S*,6R*)]-N-t-Butyl-2-[2-hydroxy-3-phenylmethyl-4-aza-5-oxo-6-N(quinolin-2-ylcarbonyl)amino-7-benzyloxycarbonyl]heptyl benzamide] | > 1430
11 | CC(C)(C)NC(=O)c1ccccc1C[C@@H](O)[C@H](Cc1ccccc1)NC(=O)[C@H](CC(=O)OCc1ccccn1)NC(=O)c1ccc2ccccc2n1 [Example 10, [2R-(2R*,3S*,6S*)]-N-t-Butyl-2-[2-hydroxy-3-phenylmethyl-4-aza-5-oxo-6-N(quinolin-2-ylcarbonyl)amino-7-(pyrid-2-ylmethoxycarbonyl)]heptyl benzamide] | 1.85
12 | CONC(=O)C[C@H](NC(=O)c1ccc2ccccc2n1)C(=O)N[C@@H](Cc1ccccc1)[C@H](O)Cc1ccccc1C(=O)NC(C)(C)C [Example 12, [2R-(2R*, 3S*, 6S*)]-N-t-Butyl-2-[2-hydroxy-3-phenylmethyl-4-aza-5-oxo-6-N(quinolin-2-ylcarbonyl)amino-8-N(methoxy)carbamoyl]heptyl benzamide] | 0.782
13 | CC(C)(C)NC(=O)c1ccccc1C[C@@H](O)[C@H](Cc1ccccc1)NC(=O)[C@H](CC(=O)NN)NC(=O)c1ccc2ccccc2n1 [Example 13, [2R-(2R*, 3S*, 6S*)]-N-t-Butyl-2-[2-hydroxy-3-phenylmethyl-4-aza-5,8-dioxo-6-N(quinolin-2-ylcarbonyl)amino-8-hydrazino]octyl benzamide] | 1.12
14 | CC(C)(C)NC(=O)c1ccccc1C[C@@H](O)[C@H](Cc1ccccc1)NC(=O)[C@H](CS(N)(=O)=O)NC(=O)c1ccc2ccccc2n1 [Example 14, [2R-(2R*,3S*,6R*)]-N-t-Butyl-2-[2-hydroxy-3-phenylmethyl-4-aza-5-oxo-6-N(quinolin-2-ylcarbonyl)amino-7-aminosulfonyl]heptyl benzamide] | 4.18
